# Laboratory results as given in publication PMC11058275, “Targeted potent antimicrobial and antitumor oxygen-heterocyclic-based pyran analogues: synthesis and computational studies” (Scientific Reports, 2024).
# Like-named read-outs stand apart in the source and are kept apart here.
# Legend:
# [1] = tested on: Bacillus cereus (ATCC 10987); assay: Agar diffusion antibacterial screening (inhibition zone); assay type: cell-based; conditions: ATCC10987, B. cereus, 1 mg/mL, Mueller–Hinton agar, read-out: Diameter of inhibition zone
# Experimental: (§1) The antibacterial activity of β-enamionitriles (4a-q) was screened using Mueller–Hinton agar medium for bacteria in an agar diffusion methodology. Ciprofloxacin (1 mg/mL) was the reference antibiotic drug used in the analysis of collections that included four gram-positive species of multi drug resistant pathogenic bacteria: Staphylococcus aureus (MRSA) (ATCC 6539), Staphylococcus aureus (ATCC 6538), Bacillus cereus (ATCC 10987), Bacillus subtilis (ATCC 6633), and two gram-negative species of multi drug resistant pathogenic bacteria Klebsiella pneumonia (ATCC 13883) and Escherichia coli (ATCC 8739). […] Using a 1 mg/mL concentration of compounds (4a-q), the minimum zone of inhibition (IZ, the area around the antimicrobial agent where bacterial growth is prevented) was established in mm ± standard deviation beyond the well diameter (6 mm). […] The synthetic compound's inhibitory effects on evaluation against these organisms are depicted in Fig. 9 and Table 1.
# (§2) Compound 4a-q was screened for its in vitro antimicrobial activities against pathogenic bacteria species using the standard antibiotics Ampicillin, Gentamycin and Ketoconazole as reference drugs as reported previously. The minimum inhibitory concentration (MIC) was determined as previously reported. The antimicrobial activities were performed at the Regional Centre for Mycology & Biotechnology (RCMP), Al-Azhar University.
# [2] = tested on: Bacillus subtilis (ATCC 6633); assay: as above; assay type: cell-based; conditions: ATCC6633, B. subtilis, 1 mg/mL, Mueller–Hinton agar, read-out: Diameter of inhibition zone
# Experimental: as §1, §2
# [3] = tested on: Escherichia coli (ATCC 8739); assay: as above; assay type: cell-based; conditions: ATCC8739, E. coli, 1 mg/mL, Mueller–Hinton agar, read-out: Diameter of inhibition zone
# Experimental: as §1, §2
# [4] = tested on: Klebsiella pneumonia (ATCC 13883); assay: as above; assay type: cell-based; conditions: Klebsiella pneumoniae, ATCC13883, K. pneumonia, 1 mg/mL, Mueller–Hinton agar, read-out: Diameter of inhibition zone
# Experimental: as §1, §2
# [5] = tested on: Staphylococcus aureus (ATCC 6538); assay: as above; assay type: cell-based; conditions: ATCC6538, S. aureus, 1 mg/mL, Mueller–Hinton agar, read-out: Diameter of inhibition zone
# Experimental: as §1, §2
# [6] = tested on: Staphylococcus aureus (MRSA) (ATCC 6539); assay: as above; assay type: cell-based; conditions: read-out: Diameter of inhibition zone
# Experimental: as §1, §2
# [7] = tested on: HCT-116 (human colon cancer); assay: MTT cytotoxicity assay; assay type: cell-based
# From the text: (§3) The antiproliferative activity of the newly synthesized 1H-benzo[f]chromenes derivatives (4a-q) was examined in three human cancer cell lines: MCF-7 (breast cancer), HCT-116 (human colon cancer), and HepG-2 (hepatocellular carcinoma), as well as the two normal cell lines, HFL-1 (human foetal lung) and WI-38 (human diploid fibroblasts), using the 3-(4,5-dimethylthiazol-2-yl)-2,5-diphenyl tetrazolium bromide (MTT) colorimetric assay[56].
# (§4) Compounds 4a-q was initially evaluated for in vitro antitumor activity against three different human cell lines: MCF-7, HCT-116 and HepG-2. In-vitro cytotoxicity evaluation was performed at the Regional Center for Mycology & Biotechnology (RCMP), Al-Azhar University under different concentrations (50, 25, 12.5, 6.25, 3.125, 1.56 and 0 µg/mL); vinblastine and doxorubicin are used as reference cytotoxic compounds.
# [8] = tested on: HepG-2 (hepatocellular carcinoma); assay: MTT cytotoxicity assay; assay type: cell-based; conditions: Homo sapiens
# From the text: as §3, §4
# MCF-7 (breast cancer) = assay: MTT cytotoxicity assay; conditions: Homo sapiens
# From the text: as §3, §4
# [9] = tested on: HFL-1 (human foetal lung); assay: MTT cytotoxicity assay, normal cells; assay type: cell-based; conditions: read-out: IC50 Normotoxicity HFL-1
# From the text: as §3, §4
# [10] = tested on: WI-38 (human diploid fibroblasts); assay: MTT cytotoxicity assay, normal cells; assay type: cell-based; conditions: read-out: IC50 Normotoxicity WI-38
# From the text: as §3, §4
# [11] = MTT, 24-h incubation, mean ± standard error, read-out: IC50 Cancerotoxicity HCT-116
# [12] = HepG2, MTT, 24-h incubation, mean ± standard error, read-out: IC50 Cancerotoxicity HepG-2
# [13] = MCF7, 24 h, read-out: IC50 Cancerotoxicity MCF-7
# [14] = HFL1, HFL-1 normal cells, MTT, 24-h incubation, mean ± standard error
# [15] = WI-38 normal cells, MTT, 24-h incubation, mean ± standard error
SMILES,zone of inhibition at 1000 µg/mL [1],zone of inhibition at 1000 µg/mL [2],zone of inhibition at 1000 µg/mL [3],zone of inhibition at 1000 µg/mL [4],zone of inhibition at 1000 µg/mL [5],zone of inhibition at 1000 µg/mL [6],"IC50 [7, 11]","IC50 [8, 12]",melting point,IC50 (MCF-7 (breast cancer); [13]),"IC50 ([7]; given in µg/mL, read-out: IC50 HCT-116)","IC50 ([8]; HepG2, given in µg/mL, read-out: IC50 HepG-2)","IC50 [9, 14]","IC50 [10, 15]","IC50 (MCF-7 (breast cancer); MCF7, read-out: IC50 MCF-7)","IC50 ([9]; HFL1, 24 h)","IC50 ([10]; WI-38, 24 h)"
"O=C(O)c1cn(C2CC2)c2cc(N3CCNCC3)c(F)cc2c1=O [Ciprofloxacin, reference compound]",22 mm,0 mm,25 mm,0 mm,0 mm,0 mm,,,,,,,,,,,
"COc1ccc2c3c(ccc2c1)OC(N)=C(C#N)C3c1ccc(OC)c(OC)c1OC (stereo not shown) [Compound 4o, 3-amino-1-(2,3,4-trimethoxyphenyl)-8-methoxy-1H-benzo[f]chromene-2-carbonitrile]",14 mm,0 mm,12 mm,11 mm,10 mm,12 mm,35.9 ± 0.02 µM,17.6 ± 0.05 µM,240 to 241 °C,55.3 ± 0.01 µM,,,,,,,
"COc1ccc2c3c(ccc2c1)OC(N)=C(C#N)C3c1c(F)cccc1F (stereo not shown) [Compound 4h, 3-Amino-1-(2,6-difluorophenyl)-8-methoxy-1H-benzo[f]chromene-2-carbonitrile]",9 mm,0 mm,0 mm,10 mm,9 mm,13 mm,33.8 ± 0.12 µM,48.1 ± 0.2 µM,295 to 296 °C,60.2 ± 0.3 µM,,,,,,,
"COc1ccc2c3c(ccc2c1)OC(N)=C(C#N)C3c1ccc(Cl)c(Cl)c1 (stereo not shown) [Compound 4m, 3-Amino-1-(3,4-dichlorophenyl)-8-methoxy-1H-benzo[f]chromene-2-carbonitrile]",13 mm,0 mm,10 mm,13 mm,0 mm,14 mm,2.3 ± 0.97 µM,1.8 ± 0.06 µM,241 to 242 °C,1.3 ± 0.21 µM,0.9 ± 0.97 µg/mL,0.7 ± 0.06 µg/mL,181 ± 0.1 µM,175.5 ± 0.2 µM,0.5 ± 0.21 µg/mL,,
"COc1ccc2c3c(ccc2c1)OC(N)=C(C#N)C3c1ccc(I)cc1 (stereo not shown) [Compound 4f, 3-Amino-1-(4-iodophenyl)-8-methoxy-1H-benzo[f]chromene-2-carbonitrile]",15 mm,8 mm,0 mm,9 mm,0 mm,12 mm,27.8 ± 0.3 µM,39.2 ± 0.2 µM,227 to 228 °C,48.5 ± 0.1 µM,,,,,,,
"COc1ccc2c3c(ccc2c1)OC(N)=C(C#N)C3c1ccc(Cl)cc1Cl (stereo not shown) [Compound 4j, 3-Amino-1-(2,4-dichlorophenyl)-8-methoxy-1H-benzo[f]chromene-2-carbonitrile]",8 mm,0 mm,12 mm,14 mm,0 mm,13 mm,5.8 ± 0.16 µM,14.1 ± 0.18 µM,285 to 286 °C,2 ± 0.02 µM,,,180.8 ± 0.3 µM,177.8 ± 0.3 µM,,,
"COc1ccc2c3c(ccc2c1)OC(N)=C(C#N)C3c1cc(OC)c(OC)c(OC)c1 (stereo not shown) [Compound 4p, 3-amino-1-(3,4,5-trimethoxyphenyl)-8-methoxy-1H-benzo[f]chromene-2-carbonitrile]",15 mm,0 mm,11 mm,12 mm,11 mm,13 mm,91.4 ± 0.01 µM,106.5 ± 0.1 µM,258 to 259 °C,114.4 ± 0.03 µM,,,,,,,
"C#Cc1cccc(Nc2ncnc3cc(OCCOC)c(OCCOC)cc23)c1 [Erlotinib, N-(3-ethynylphenyl)-6,7-bis(2-methoxyethoxy)-4-quinazolinamine, reference compound]",,,,,,,,,,,,,,,,14 ± 1.2 µM,28.5 ± 0.2 µM
"COc1ccc2c3c(ccc2c1)OC(N)=C(C#N)C3c1cc(Cl)ccc1Cl (stereo not shown) [Compound 4k, 3-Amino-1-(2,5-dichlorophenyl)-8-methoxy-1H-benzo[f]chromene-2-carbonitrile]",0 mm,0 mm,13 mm,15 mm,0 mm,12 mm,2.5 ± 0.23 µM,1.8 ± 0.03 µM,270 to 271 °C,6.6 ± 0.4 µM,,,,,,,
N#CC(C#N)=Cc1ccc(Cl)cc1,,,,,,,,,162 to 163 °C,,,,,,,,
COc1ccc2c3c(ccc2c1)OC(N)=C(C#N)C3c1c(Cl)cccc1Cl (stereo not shown) [Compound 4l],8 mm,0 mm,0 mm,14 mm,0 mm,13 mm,21.3 ± 0.01 µM,2.3 ± 0.02 µM,313 to 314 °C,12.1 ± 0.06 µM,,,,,,,
"COc1ccc2c3c(ccc2c1)OC(N)=C(C#N)C3c1cc(Cl)cc(Cl)c1Cl (stereo not shown) [Compound 4q, 3-amino-1-(2,3,5-trichlorophenyl)-8-methoxy-1H-benzo[f]chromene-2-carbonitrile]",13 mm,10 mm,12 mm,13 mm,10 mm,13 mm,107 ± 1.6 µM,76.5 ± 0.9 µM,259 to 260 °C,110.4 ± 0.1 µM,,,,,,,
